Assay in all cases: DTP human tumour cell line panel, 48 h
The test system of experiment [1] is SF-268.
The subject of experiment [2] is A549.
Experiment [3] deals with HCC 2998.
The subject of experiment [4] is EKVX.
For experiment [5], the system named is SK-MEL-2.
In experiment [6] the test system is NCI-H460.
Experiment [7] has as its system LOX IMVI.
In experiment [8] the test system is HT-29.
The subject of experiment [9] is SK-MEL-28.
In experiment [10] the test system is SW-620.
Experiment [11] has as its system MDA-MB-231.
Experiment [12] concerns HCT-15.
Experiment [13] has as its system Malme-3M.
In experiment [14] the test system is SK-MEL-5.
Experiment [15] concerns UACC-257.
Experiment [16] has as its system ACHN.
Experiment [17] relates to HOP-92.
For experiment [18], the system named is DU-145.
Experiment [19] has as its system UO-31.
For experiment [20], the system named is Hs-578T.

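How tested: cells in 96-well plates exposed to compound for 48 hours at five concentrations. GI50 is the concentration that inhibits growth by half.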 Activity calls are given as the source filed them. No stated cut-off is given here; in the data, active = GI50 up to about 1.1 µM and inactive = higher. Some results are limits rather than exact numbers.

`CN(O)C(=S)c1ccccc1`: the GI50 in experiment [1] was 6.43 µM (inactive); in [2], 4.26 µM (inactive); in experiment [3] it was 6.34 µM (inactive); in experiment [4], 15.5 µM (inactive); in experiment [5], 5.07 µM (inactive); in experiment [6] it was 2.9 µM (inactive). Further, the GI50 was 1.57 µM (inactive) in experiment [7]; 0.312 µM (active) in experiment [8]; 3.31 µM (inactive) in experiment [9]; 1.25 µM (inactive) in experiment [10]; 9.33 µM (inactive) in experiment [11]; 2.47 µM in [12]. Besides, the GI50 in experiment [13] was 7.82 µM (inactive); in [14], 1.7 µM (inactive); in experiment [15], 13.1 µM (inactive); in [16] it was 4.42 µM (inactive); in experiment [17] it was 5.25 µM (inactive); in [18], 41.2 µM (inactive). For the same compound, the GI50 was 5.35 µM (inactive) in [19] and > 20.2 µM (inactive) in [20].

Take `COc1cc2c(cc1OC)-c1cc3ccccc3c(=O)n1CCC2`: the GI50 in [1] was 13.3 µM (inactive); in experiment [2], 8.28 µM (inactive); in experiment [3], 13.7 µM (inactive); in experiment [4], 21.9 µM (inactive); in [5] it was 29.3 µM (inactive); in experiment [6] it was 1.76 µM (inactive). The GI50 in experiment [7] was 2.66 µM (inactive); in [8], 4.17 µM (inactive); in [9], 17.9 µM (inactive); in experiment [10], 8.32 µM (inactive); in experiment [11], 5.47 µM (inactive); in [12], 2.07 µM. Besides, the GI50 in experiment [13] is 20 µM (inactive); in experiment [14] it was 11.4 µM (inactive); in [15], 19.8 µM (inactive); in experiment [16], 13.4 µM (inactive); in [17], 15.4 µM (inactive); in experiment [18], 10.7 µM (inactive). The values for the GI50 in experiment [19] and in experiment [20] were 13 µM (inactive) and 14.8 µM (inactive), respectively.

For `O=S1(=O)c2ccccc2NC(=S)N1c1ccccc1`, the GI50 in [1] was 71.1 µM (inactive); in [2], 6.17 µM (inactive); in [3], 53.5 µM (inactive); in [4] it was 32.4 µM (inactive); in experiment [5], 73.5 µM (inactive); in experiment [6], > 79.1 µM (inactive). Moreover, the GI50 was 26.7 µM (inactive) in experiment [7]; > 13.4 µM (inactive) in experiment [8]; > 89.9 µM (inactive) in experiment [9]; > 100 µM (inactive) in [10]; > 57.8 µM (inactive) in experiment [11]; 75 µM in experiment [12]. In addition, the GI50 in experiment [13] was 46.1 µM (inactive); in experiment [14] it was 32 µM (inactive); in experiment [15] it was 40 µM (inactive); in experiment [16], 70.6 µM (inactive); in experiment [17], 3.89 µM (inactive); in experiment [18], 87.1 µM (inactive). The GI50 is 36.7 µM (inactive) in experiment [19] and 69.2 µM (inactive) in [20].

For `Cc1cc(C2(c3cc(C)c(O)c4ncccc34)OC(=O)c3ccccc32)c2cccnc2c1O`, the GI50 is 0.0121 µM (active) in experiment [1]; < 0.001 µM (active) in [2]; 0.0468 µM (active) in experiment [3]; 0.0203 µM (active) in experiment [4]; 0.262 µM (active) in experiment [5]; < 0.001 µM (active) in [6]. For the same compound, the 50% growth inhibitory concentration (GI50) in experiment [7] is 0.00601 µM (active); in experiment [8] it was 0.0406 µM (active); in experiment [9], > 10 µM (inactive); in experiment [10], 0.0304 µM (active); in [11], 0.0692 µM (active); in [12], less than 0.001 µM. Besides, the GI50 in [13] is 1 µM (active); in experiment [14], 0.0231 µM (active); in experiment [15], 2.77 µM (inactive); in experiment [16] it was 0.00662 µM (active); in [17], 0.252 µM (active); in experiment [18], 0.0659 µM (active). For the same compound, the figures for the GI50 in experiment [19] and in experiment [20] were 0.00574 µM (active) and 0.0127 µM (active), respectively.

As to `CC(C)(C)N(Cc1ccccc1)C(=O)/C=C\[S+]([O-])c1ccccc1` (stereo not given), the GI50 was 2.07 µM (inactive) in experiment [1]; 11.5 µM (inactive) in [2]; 6.28 µM (inactive) in experiment [3]; 10.5 µM (inactive) in experiment [4]; 2.8 µM (inactive) in experiment [5]; 4.1 µM (inactive) in experiment [6]. The GI50 is 1.73 µM (inactive) in experiment [7]; 4.11 µM (inactive) in [8]; 7.73 µM (inactive) in [9]; 2.15 µM (inactive) in [10]; 3.27 µM (inactive) in experiment [11]; 3.75 µM in experiment [12]. In addition, the GI50 in [13] was 1.69 µM (inactive); in [14], 5.25 µM (inactive); in [15], 5.08 µM (inactive); in experiment [16] it was 4.71 µM (inactive); in [17], 3.37 µM (inactive); in experiment [18], 3.85 µM (inactive). Further, the figures for the GI50 in experiment [19] and in [20] were 2.34 µM (inactive) and 2.07 µM (inactive), respectively.

Take `CSCCCNC(=O)[C@H](CSC)NC(=O)c1csc(CCNC(=O)[C@@H](NSc2ccccc2[N+](=O)[O-])C(C)O)n1` (stereo not given in full): the GI50 in experiment [1], in [2], in [3], in [4], in experiment [5] and in experiment [6] was > 100 µM (inactive) in each case. Further, the GI50 in experiment [7] is > 100 µM (inactive); in experiment [8], > 100 µM (inactive); in [9] it was > 100 µM (inactive); in experiment [10] it was > 100 µM (inactive); in experiment [11] it was > 100 µM (inactive); in [12], greater than 100 µM. For the same compound, the GI50 in [13], in experiment [14], in [15], in [16], in experiment [17] and in [18] was > 100 µM (inactive) in each case. Also, the GI50 in [19] and in experiment [20] was > 100 µM (inactive) throughout.

Turning to `CC(C)(C)OC(=O)NC(Cc1ccc(OCc2ccccc2)cn1)C(=O)N1CCSCC1` (stereo not given), the GI50 is 65.3 µM (inactive) in [1]; 56.4 µM (inactive) in [2]; 57.8 µM (inactive) in experiment [3]; 41.6 µM (inactive) in [4]; 38.7 µM (inactive) in [5]; 38 µM (inactive) in experiment [6]. The GI50 is 28.3 µM (inactive) in [7]; 32.7 µM (inactive) in experiment [8]; 78.7 µM (inactive) in [9]; 81.7 µM (inactive) in experiment [10]; > 100 µM (inactive) in experiment [11]; 46.7 µM in experiment [12]. Further, the GI50 in [13] was 46.5 µM (inactive); in experiment [14], 16.3 µM (inactive); in experiment [15], 26.4 µM (inactive); in experiment [16] it was 57.3 µM (inactive); in experiment [17], 47.4 µM (inactive); in experiment [18], 51.9 µM (inactive). Moreover, the GI50 in experiment [19] was 50.6 µM (inactive); in experiment [20], 77.3 µM (inactive).

Turning to `CCCC(=O)OC[n+]1ccc(-c2c(COC(=O)NC(C)C)c(COC(=O)NC(C)C)c3n2CCC3)cc1`, the GI50 in experiment [1] is 65.8 µM (inactive); in experiment [2] it was > 100 µM (inactive); in experiment [3], > 100 µM (inactive); in experiment [4] it was > 100 µM (inactive); in experiment [5], > 100 µM (inactive); in experiment [6] it was 76.4 µM (inactive). The GI50 is > 100 µM (inactive) in experiment [7]; > 100 µM (inactive) in experiment [8]; > 100 µM (inactive) in experiment [9]; > 100 µM (inactive) in experiment [10]; > 100 µM (inactive) in experiment [11]; greater than 100 µM in [12]. Besides, the GI50 in experiment [13] was > 100 µM (inactive); in [14] it was > 100 µM (inactive); in experiment [15] it was > 100 µM (inactive); in experiment [16], 15.4 µM (inactive); in experiment [17], > 100 µM (inactive); in [18], 31.2 µM (inactive). The GI50 in [19] and in [20] was > 100 µM (inactive) in each case.

In the case of `Cc1cccc(NC(=O)/C=C/c2ccc([N+](=O)[O-])cc2)c1`, the GI50 was 38.3 µM (inactive) in [1]; > 41.7 µM (inactive) in experiment [2]; 16.6 µM (inactive) in experiment [3]; 23.2 µM (inactive) in [4]; 20 µM (inactive) in experiment [5]; > 43.5 µM (inactive) in experiment [6]. Besides, the GI50 in experiment [7] was > 36.3 µM (inactive); in experiment [8], 35 µM (inactive); in experiment [9] it was > 42 µM (inactive); in [10], > 45.3 µM (inactive); in experiment [11] it was 22.4 µM (inactive); in experiment [12] it was greater than 35.1 µM. Also, the GI50 is 0.838 µM (active) in experiment [13]; > 36.4 µM (inactive) in [14]; > 39 µM (inactive) in [15]; 14.9 µM (inactive) in experiment [16]; 15.8 µM (inactive) in experiment [17]; > 38.7 µM (inactive) in experiment [18]. In addition, the GI50 was > 35.5 µM (inactive) in [19] and 48.1 µM (inactive) in [20].

For `O=C1Nc2ccc(Br)cc2/C1=C/C(=O)c1ccccc1`, the GI50 in experiment [1] was 19.5 µM (inactive); in experiment [2], 16.1 µM (inactive); in experiment [3] it was 15.1 µM (inactive); in [4] it was 14.5 µM (inactive); in experiment [5] it was 16 µM (inactive); in experiment [6], 18.2 µM (inactive). Further, the GI50 in [7] was 1.93 µM (inactive); in [8] it was 1.59 µM (inactive); in experiment [9], 14.8 µM (inactive); in experiment [10], 2.25 µM (inactive); in [11] it was 15.5 µM (inactive); in experiment [12] it was 2.49 µM. In addition, the GI50 in experiment [13] was 6.37 µM (inactive); in [14], 16.7 µM (inactive); in experiment [15] it was 15.1 µM (inactive); in experiment [16], 1.87 µM (inactive); in experiment [17], 4.13 µM (inactive); in experiment [18], 10.2 µM (inactive). Further, the figures for the GI50 in [19] and in experiment [20] were 2.49 µM (inactive) and 17.7 µM (inactive), respectively.

The record behind these values is ChEMBL document CHEMBL1201862, “PubChem BioAssay data set” (2004).
